What was measured:
[1] = test system: ENR+CD organoids (ISC to Paneth cell differentiation); experiment: Primary screen: basal (non-stimulated) lysozyme secretion LYZ.NS, 2.5-D 384-well ENR+CD organoid differentiation; assay type: cell-based, mouse
Source text: (§1) High-throughput screening.

ENR+CD organoids = experiment: Primary screen: ATP (CellTiter-Glo 3D, CTG) cell number/viability, 2.5-D 384-well ENR+CD organoids; settings: primary screen; for Z.CTG: standard z score;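 as to all read-outs here: compounds given at plating and again on day 3 over a 6-day differentiation from ENR+CV stem-cell-enriched precursors, ATP measured on day 6, plate median as control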
[2] = test system: ENR+CD organoids (ISC to Paneth cell differentiation); experiment: Primary screen: CCh-stimulated lysozyme secretion LYZ.S, 2.5-D 384-well ENR+CD organoid differentiation; assay type: cell-based, mouse; settings: primary screen
Source text: as §1

[3] = primary screen, standard z score, dose 0.08 uM
[4] = primary screen, standard z score, dose 0.40 uM
[5] = primary screen, standard z score, dose 2.00 uM
[6] = primary screen, standard z score, dose 10.00 uM
[7] = dose 0.08 uM, FC vs plate median
[8] = dose 0.40 uM, FC vs plate median
[9] = dose 2.00 uM, FC vs plate median
[10] = dose 10.00 uM, FC vs plate median

Row | SMILES | Dose.FC.LYZ.NS ([1]; primary screen, dose 0.08 uM) [log2 fold change] | Dose.FC.LYZ.NS ([1]; primary screen, dose 0.40 uM) [log2 fold change] | Dose.FC.LYZ.NS ([1]; primary screen, dose 2.00 uM) [log2 fold change] | Dose.FC.LYZ.NS ([1]; primary screen, dose 10.00 uM) [log2 fold change] | Z.LYZ.NS [1, 3] | Z.LYZ.NS [1, 4] | Z.LYZ.NS [1, 5] | Z.LYZ.NS [1, 6] | Dose.FC.CTG (ENR+CD organoids; dose 0.08 uM) [log2 fold change] | Dose.FC.CTG (ENR+CD organoids; dose 0.40 uM) [log2 fold change] | Dose.FC.CTG (ENR+CD organoids; dose 2.00 uM) [log2 fold change] | Dose.FC.CTG (ENR+CD organoids; dose 10.00 uM) [log2 fold change] | Z.CTG (ENR+CD organoids; dose 0.08 uM) | Z.CTG (ENR+CD organoids; dose 0.40 uM) | Z.CTG (ENR+CD organoids; dose 2.00 uM) | Z.CTG (ENR+CD organoids; dose 10.00 uM) | Dose.FC.LYZ.S ([2]; dose 0.08 uM) [log2 fold change] | Dose.FC.LYZ.S ([2]; dose 0.40 uM) [log2 fold change] | Dose.FC.LYZ.S ([2]; dose 2.00 uM) [log2 fold change] | Dose.FC.LYZ.S ([2]; dose 10.00 uM) [log2 fold change] | other results
1 | O=c1[nH]c2ccc(Cl)cc2c(N[C@@H]2CN3CCC2CC3)c1-c1nc2ccccc2[nH]1 [CHIR-124] | −0.155 | −0.240 | −0.220 | −0.140 | −1.352 | −2.090 | −1.916 | −1.223 | −0.256 | −0.853 | −0.861 | −1.555 | −0.612 | −2.038 | −2.057 | −3.714 | −0.267 | −0.339 | −0.352 | −0.332 | –
2 | Cc1nc(C(=O)NCC(=O)O)c(O)c2ccc(Oc3ccccc3)cc12 [FG-4592] | 0.077 | 0.170 | 0.094 | 0.030 | 0.673 | 1.484 | 0.822 | 0.265 | 0.327 | 0.284 | 0.290 | 0.238 | – | – | – | – | 0.083 | 0.234 | 0.152 | 0.071 | –
3 | CN(C)C(=O)[C@H](O)[C@H](Cc1ccccc1)NC(=O)c1cc2cc(Cl)ccc2[nH]1 [CP-91149] | 0.177 | −0.033 | 0.028 | −0.057 | 1.538 | −0.289 | 0.245 | −0.498 | 0.031 | −0.023 | −0.098 | −0.100 | 0.073 | −0.056 | −0.234 | −0.239 | 0.186 | 0.055 | −0.121 | −0.097 | –
4 | CCO[C@@H]1OC(=O)C[C@@H]1NC(=O)[C@@H]1CCCN1C(=O)[C@@H](NC(=O)c1ccc(N)c(Cl)c1)C(C)(C)C [VX-765] | 0.043 | 0.036 | 0.059 | 0.022 | – | – | – | – | 0.154 | 0.232 | 0.165 | 0.254 | – | – | – | – | 0.091 | 0.032 | 0.061 | 0.174 | Z.LYZ.NS (standard z score) ([1]; primary screen, dose 0.08 uM): 0.371; Z.LYZ.NS (standard z score) ([1]; primary screen, dose 0.40 uM): 0.317; Z.LYZ.NS (standard z score) ([1]; primary screen, dose 2.00 uM): 0.516; Z.LYZ.NS (standard z score) ([1]; primary screen, dose 10.00 uM): 0.190
5 | CC(C)CC(=O)Nc1[nH]nc2c1CN(C(=O)C1CCN(C)CC1)C2(C)C [PHA-793887] | – | – | – | – | – | – | – | – | – | – | – | – | – | – | – | – | – | – | – | – | Z.LYZ.NS ([1]; primary screen, dose 0.08 uM, standard z score): 0.275; Z.LYZ.NS ([1]; primary screen, dose 0.40 uM, standard z score): 0.085; Z.LYZ.NS ([1]; primary screen, dose 2.00 uM, standard z score): −1.187; Z.LYZ.NS ([1]; primary screen, dose 10.00 uM, standard z score): −2.324; Dose.FC.LYZ.NS ([1]; primary screen; dose 0.08 uM; FC vs plate median): 0.032 log2 fold change; Dose.FC.LYZ.NS ([1]; primary screen; dose 0.40 uM; FC vs plate median): 0.010 log2 fold change; Dose.FC.LYZ.NS ([1]; primary screen; dose 2.00 uM; FC vs plate median): −0.136 log2 fold change; Dose.FC.LYZ.NS ([1]; primary screen; dose 10.00 uM; FC vs plate median): −0.267 log2 fold change; Dose.FC.CTG (ENR+CD organoids; [7]): 0.113 log2 fold change; Dose.FC.CTG (ENR+CD organoids; [8]): 0.132 log2 fold change; Dose.FC.CTG (ENR+CD organoids; [9]): −0.144 log2 fold change; Dose.FC.CTG (ENR+CD organoids; [10]): −0.856 log2 fold change; Dose.FC.LYZ.S [2, 7]: 0.046 log2 fold change; Dose.FC.LYZ.S [2, 8]: 0.100 log2 fold change; Dose.FC.LYZ.S [2, 9]: −0.081 log2 fold change; Dose.FC.LYZ.S [2, 10]: −0.292 log2 fold change
